Tests used:
[1] = target: T1, BRD4-full length: recombinant human bromodomain containing protein 4 (bromodomain 1 and 2; aa 2–1362) (Homo sapiens, UniProt O60885); experiment: BRD4 binding assay (AlphaScreen); settings: for IC50 / BRD4 binding activity in words: AlphaScreen assay; for LE (Ligand Efficiency): LE = 1.4 (pIC50/heavy atoms)
T1 construct: (bromodomain 1 and 2; aa 2–1362; Genbank Accesstion # NM_058243); host or cells: Sf9 insect cells
Method: The binding affinity was evaluated by a using AlphaScreen technology […] assay. The biotinylated peptide binding to the reader domain of His-tagged protein is monitored by the singlet oxygen transfer from the Streptavidin-coated donor beads to the AlphaScreen Ni-chelate acceptor beads. Reagent:Reaction buffer:50 mM Hepes, pH7.5, 100 mM NaCl, 0.05% CHAPS, 0.1% BSA, and 1% DMSO (the final DMSO concentration may different depending on compound stock and test concentrations). […] MW = 156.5 kDa. […] Reaction procedure: (1) Deliver 2.5× BRD in wells of reaction plate except No BRD control wells. Add buffer instead. (2) Deliver compounds in 100% DMSO into the BRD mixture by Acoustic technology (Echo550; nanoliter range). Spin down and pre-incubation for 30 min. (3) Deliver 5 × Ligand. Spin and shake. (4) Incubate for 30 min at room temperature with gentle shaking. (5) Deliver 5× donor beads. Spin and shake. (6) Deliver 5 × acceptor beads. Spin and shake. Then gentle shaking in the dark for 60 min. (7) Alpha measurement (Ex/Em = 680/520–620 nm) in Enspire.

[2] = design: method as in PMID 23095041; settings: cited from earlier work

IC50 [1] | LE (Ligand Efficiency) [1] | Structure (SMILES) | further results
0.98 µM | 0.37 | COc1ccccc1S(=O)(=O)Nc1ccc2oc(=O)ccc2c1 [Compound 11, 2-methoxy-N-(2-oxo-2H-chromen-6-yl)benzenesulphonamide] | lipophilic efficiency (LipE) ([1]; LipE = −lg (IC50) − logP): 3.9; fold more potent than 1 (BRD4 IC50) ([1]; compared with compound 1): approximately 7 fold
1.77 µM | 0.35 | O=c1ccc2cc(NS(=O)(=O)c3ccc(Cl)cc3Cl)ccc2o1 [Compound 12, 2,4-dichloro-N-(2-oxo-2H-chromen-6-yl)benzenesulphonamide] | 
9.26 µM | 0.35 | O=c1ccc2cc(NS(=O)(=O)c3cccs3)ccc2o1 [Compound 14, N-(2-oxo-2H-chromen-6-yl)thiophene-2-sulphonamide] | BRD4 binding activity in words [1]: low binding activity
12.2 µM | 0.28 | O=c1ccc2cc(NS(=O)(=O)c3ccc4ccccc4c3)ccc2o1 [Compound 15, N-(2-oxo-2H-chromen-6-yl)naphthalene-2-sulphonamide] | BRD4 binding activity in words [1]: reduction of affinity
18.4 µM | 0.28 | O=c1ccc2cc(NS(=O)(=O)c3ccc4c(c3)CCO4)ccc2o1 [Compound 16, N-(2-oxo-2H-chromen-6-yl)-2,3-dihydrobenzofuran-5-sulphonamide] | BRD4 binding activity in words [1]: reduction of affinity
32.6 µM |  | COc1ccc(NS(=O)(=O)c2ccc3oc(=O)ccc3c2)cc1 [Compound 17, N-(4-methoxyphenyl)-2-oxo-2H-chromene-6-sulphonamide] | fold decrease in potency compared with 7 (BRD4) ([1]; compared with compound 7): ~5 fold

Continued, molecule first:

Structure (SMILES) | IC50 [1] | LE (Ligand Efficiency) [1] | further results
O=c1ccc2cc(NS(=O)(=O)c3ccccc3)ccc2o1 [Compound 1, N-(2-oxo-2H-chromen-6-yl)benzenesulphonamide] | 6.59 µM | 0.35 | 
O=c1ccc2cc(NS(=O)(=O)C3CCCCC3)ccc2o1 [Compound 2, N-(2-oxo-2H-chromen-6-yl)cyclohexanesulphonamide] | 19 µM | 0.31 | 
O=c1ccc2cc(NS(=O)(=O)C3CCCC3)ccc2o1 [Compound 3, N-(2-oxo-2H-chromen-6-yl)cyclopentanesulphonamide] | 17.9 µM | 0.33 | 
CCCS(=O)(=O)Nc1ccc2oc(=O)ccc2c1 [Compound 4, N-(2-oxo-2H-chromen-6-yl)propane-1-sulphonamide] | 38.5 µM | 0.34 | 
CCCCS(=O)(=O)Nc1ccc2oc(=O)ccc2c1 [Compound 5, N-(2-oxo-2H-chromen-6-yl)butane-1-sulphonamide] | 30 µM | 0.33 | 
O=c1ccc2cc(NS(=O)(=O)c3ccc(Cl)cc3)ccc2o1 [Compound 6, 4-chloro-N-(2-oxo-2H-chromen-6-yl)benzenesulphonamide] | 2.97 µM | 0.34 | 
COc1ccc(S(=O)(=O)Nc2ccc3oc(=O)ccc3c2)cc1 [Compound 7, 4-methoxy-N-(2-oxo-2H-chromen-6-yl)benzene sulphonamide] | 7.31 µM | 0.33 | 
CC(C)(C)c1ccc(S(=O)(=O)Nc2ccc3oc(=O)ccc3c2)cc1 [Compound 8, 4-(tert-butyl)-N-(2-oxo-2H-chromen-6-yl)benzene sulphonamide] | 5.09 µM | 0.30 | 
N#Cc1cccc(S(=O)(=O)Nc2ccc3oc(=O)ccc3c2)c1 [Compound 9, 3-cyano-N-(2-oxo-2H-chromen-6-yl)benzene sulphonamide] | 5.03 µM | 0.32 | 
O=c1ccc2cc(NS(=O)(=O)c3ccccc3Cl)ccc2o1 [Compound 10, 2-chloro-N-(2-oxo-2H-chromen-6-yl)benzenesulphonamide] | 2.21 µM | 0.36 | 
COc1ccccc1S(=O)(=O)Nc1ccc2c(c1)CN(C)C(=O)N2 [PFI-1] |  |  | oral bioavailability (F) [2]: 32%

— publication PMC6427567, “Discovery of novel coumarin derivatives as potent and orally bioavailable BRD4 inhibitors based on scaffold hopping” (Journal of Enzyme Inhibition and Medicinal Chemistry, 2019)
